{"source": "patent US7901893B2", "about": "“NPC1L1 (NPC3) and methods of identifying ligands thereof” (Merck Sharp & Dohme Corp., priority 2004, dated 2011)", "key": {"[1]": {"target": "T1, rat brush border membrane vesicles (Rattus norvegicus, UniProt Q6T3U3)", "T1 construct": "from tissue; host or cells: rat (male Sprague-Dawley) small-intestinal mucosa, brush border membrane vesicles", "assay": "Binding assay with rat brush border membrane vesicles", "description": "Glass fiber filters (GF/C) were obtained from Whatman.\nRate constants for binding and dissociation.\n(§1) Analog structures are defined in Table 12."}, "[2]": {"target": "T2, rhesus brush border membrane vesicles (Macaca mulatta, UniProt A0MJA5)", "T2 sequence (A0MJA5 1-1332)": "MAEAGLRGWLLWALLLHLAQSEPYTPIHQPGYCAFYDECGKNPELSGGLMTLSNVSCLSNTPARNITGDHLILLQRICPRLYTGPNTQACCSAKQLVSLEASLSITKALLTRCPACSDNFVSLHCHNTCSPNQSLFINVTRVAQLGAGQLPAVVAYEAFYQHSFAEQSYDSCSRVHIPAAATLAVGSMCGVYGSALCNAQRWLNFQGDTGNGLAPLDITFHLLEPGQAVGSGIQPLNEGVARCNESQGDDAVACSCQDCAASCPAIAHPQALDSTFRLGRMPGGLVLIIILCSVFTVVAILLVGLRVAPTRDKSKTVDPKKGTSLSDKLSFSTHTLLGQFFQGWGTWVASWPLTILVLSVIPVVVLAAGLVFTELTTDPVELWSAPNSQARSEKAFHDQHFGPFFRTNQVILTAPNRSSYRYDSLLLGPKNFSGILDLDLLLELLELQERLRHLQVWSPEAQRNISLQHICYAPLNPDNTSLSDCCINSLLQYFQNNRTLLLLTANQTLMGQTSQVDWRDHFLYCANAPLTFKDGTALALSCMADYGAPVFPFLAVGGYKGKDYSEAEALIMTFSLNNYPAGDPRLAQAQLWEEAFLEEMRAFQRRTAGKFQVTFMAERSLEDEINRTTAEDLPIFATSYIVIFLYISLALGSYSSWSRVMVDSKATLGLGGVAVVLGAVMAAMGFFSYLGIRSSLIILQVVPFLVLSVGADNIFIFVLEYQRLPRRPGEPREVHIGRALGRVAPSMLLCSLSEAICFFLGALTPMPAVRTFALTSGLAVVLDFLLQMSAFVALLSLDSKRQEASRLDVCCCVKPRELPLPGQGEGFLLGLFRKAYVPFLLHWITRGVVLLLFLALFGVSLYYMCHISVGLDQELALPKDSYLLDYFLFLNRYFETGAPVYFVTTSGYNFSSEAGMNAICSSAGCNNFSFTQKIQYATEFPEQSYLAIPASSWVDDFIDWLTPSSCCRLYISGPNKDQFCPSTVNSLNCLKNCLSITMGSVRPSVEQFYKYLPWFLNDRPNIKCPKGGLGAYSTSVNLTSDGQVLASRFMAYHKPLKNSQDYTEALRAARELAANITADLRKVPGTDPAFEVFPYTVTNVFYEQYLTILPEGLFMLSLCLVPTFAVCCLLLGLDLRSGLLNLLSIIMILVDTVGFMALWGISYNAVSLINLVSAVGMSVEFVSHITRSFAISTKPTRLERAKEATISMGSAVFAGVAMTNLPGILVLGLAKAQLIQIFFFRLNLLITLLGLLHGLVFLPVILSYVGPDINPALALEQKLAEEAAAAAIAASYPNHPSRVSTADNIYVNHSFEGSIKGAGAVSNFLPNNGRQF", "assay": "Binding assay with rhesus brush border membrane vesicles", "quoted_text": "The intestines from freshly sacrificed animals were cut into segments, perfused with ice-cold saline buffer (Buffer A: 26 mM NaHCO3, 0.96 mM NaH2PO4, 5 mM HEPES, 5.5 mM glucose, 117 mM NaCl, 5.4 mM KCl, pH=7.4), placed on cold glass plates, opened longitudinally, and the mucosa scraped with glass microscope slips. This mucosa could be used fresh or frozen with identical results. To prepare the membranes, the mucosal scrapings were resuspended in 20 volumes of cold buffer consisting of 300 mM D-mannitol, 5 mM EGTA, 12 mM Tris, pH 7.4 with HCl, and containing 0.1 mM PMSF and a 1% dilution of a protease inhibitor cocktail (set 1, Calbiochem). They were homogenized using a Polytron at medium speed on ice until inspection with a microscope indicated complete cell lysis. Then, solid MgCl2 was added slowly with stirring to a final concentration of 10 mM, and the solution was kept stirring on ice for 15 min. Cellular debris was removed by centrifugation for 15 min at 3,000 g, and the membranes were recovered by centrifugation for 60 min at 48,000 g. The membranes were further rinsed by re-suspension in a buffer containing 50 mM D-mannitol, 5 mM EGTA, and 2 mM Tris at pH 7.40, and centrifugation for 60 min at 48,000 g. The final pellet was resuspended in 120 mM NaCl and 20 mM Tris at pH 7.40 to a concentration of ˜10-20 mg protein/ml, aliquoted, frozen in liquid nitrogen, and stored at −80 C. The activity was stable indefinitely and could be freeze-thawed with minimal loss of activity.\nBinding assay. Assays were conducted in 12×75 mm glass test tubes and total volume 20-100 ul. In general, frozen membranes were diluted in buffer A or buffer A containing 0.03% taurocholate and 0.05% digitonin to a final concentration of 0.02 to 5 mg/ml. […] Competing ligands were likewise added as DMSO solutions to give a total 2-10% organic solvent content. […] At least 2 components of buffer A, the bicarbonate and phosphate salts, were later found to be inconsequential and were routinely omitted.\nBound ligand was quantified by single-tube vacuum filtration using GF/C glass fiber filters. […] Filtration was accomplished by adding 2.5 ml of ice cold buffer (120 mM NaCl, 0.1% sodium cholate, and 20 mM MES at pH 6.70) to the assay tube, pouring the mixture through the filter, and then rinsing the tube and filter twice more with another 2×2.5 ml buffer. The filters were counted in 7 ml vials using Packard DM liquid scintillation fluid.\nData analysis. Data from saturation experiments were subjected to a Scatchard analysis, and linear regression was performed to yield the equilibrium dissociation constant (Kd) and maximum receptor concentration (Bmax). […] Data from competition experiments were analyzed and IC50 values determined from Hill plots of the binding data."}, "rat NPC1L1": {"target": "rat NPC1L1 (Rattus norvegicus, UniProt Q6T3U3)", "assay": "Binding to membranes of HEK-293 cells expressing recombinant rat NPC1L1", "set-up": "expressed in transfected cells; host or cells: HEK-293 cells (ATCC), transient, pCR3.1; membranes", "conditions": "0.03% sodium taurocholate and 0.05% digitonin; 1.25 mg protein/ml, 100 nM 1", "protocol": "Transient expression of NPC1L1. Plasmid pCR3.1 expressing rat NPC1L1 (Genbank AY437867) or human NPC1L1 (Genbank AY437865) were prepared using standard molecular biology protocols. HEK-293 cells (ATCC) were seeded at 10×10^6 cells per T-225 flask (Corning) in DMEM containing 10% fetal calf serum, 4.5 g/L D-glucose and L-glutamine, 18 hours prior to transfection. They were transiently transfected with 25 μg of DNA using Fugene transfection reagent (Roche Biochemical) at a ratio of 6:1 Fugene:DNA. Following transfection, the cells were incubated at 37° C. and 5% CO2 for 48 hours, and then harvested using PBS based cell dissociation buffer (Gibco), pelleted at 500×g, snap frozen on dry ice, and stored at −80° C.\nMembrane preparation from HEK-293 cells. Membranes were prepared by resuspending the frozen cell pellets in ten volumes of 20 mM HEPES/Tris buffer at pH 7.40 containing 8% sucrose, and sonicating the suspensions with a probe sonicator on ice until most of the cells were lysed. To isolate the membranes, the sonicates were centrifuged at 1600×g for 10 min to remove cell debris, and then the supernatants were centrifuged at 125,000×g for 1 hour to recover the membranes. These membranes were resuspended in 20 mM HEPES/Tris buffer at pH 7.40 containing 160 mM NaCl and 5% glycerol, and stored at 10-20 mg/ml protein at −80° C.\nas §1"}, "[3]": {"conditions": "0.03% sodium taurocholate and 0.05% digitonin, 1.25 mg protein/ml, 100 nM 1, read-out: Rat BBM Ki"}, "[4]": {"conditions": "rat brush border membrane vesicles, read-out: RAT IC50 (nM), inhibition of ^3H-EZE-gluc binding"}, "[5]": {"conditions": "Monkey BBM Ki (nM), 0.03% sodium taurocholate and 0.05% digitonin, 1.25 mg protein/ml, 20 nM 1"}, "[6]": {"conditions": "50 nM ^3H-EZE-glucuronide, 150 μg protein/assay, read-out: inhibition constant Ki, Rat"}, "[7]": {"conditions": "native rat intestinal brush border membranes, read-out: Rat BBMV Ki"}}, "note": "Several values for one entry are separate records, joined by “and”; a condition that tells them apart may be missing. Equal values may be shown once. Read-outs that look alike come from different tables or passages of the source."}
{"smiles": "O=C(O)C1OC(Oc2ccc(C3C(CCC(O)c4ccc(F)cc4)C(=O)N3c3ccc(F)cc3)cc2)C(O)C(O)C1O", "note": "(single isomer, unassigned) [Compound 4]", "values": [{"measurement": "Ki", "setting": "[1]; [3]", "value": 130000, "unit": "nM"}, {"measurement": "activity in vitro", "setting": "[1]; in all species, Ki>100×KD for ezetimibe glucuronide", "value": "completely inactive"}, {"measurement": "IC50", "setting": "[1]; [4]", "value": "> 100000", "unit": "nM"}, {"measurement": "Kd", "setting": "[1]; rat membrane binding assay, read-out: Kd for the rat target", "value": "> 100000", "unit": "nM"}, {"measurement": "Ki", "setting": "[2]; [5]", "value": 22000, "unit": "nM"}, {"measurement": "Ki", "setting": "rat NPC1L1", "value": 74000, "unit": "nM"}]}
{"smiles": "O=C(O)[C@H]1O[C@@H](Oc2ccc([C@@H]3[C@@H](CC[C@H](O)c4ccc(F)cc4)C(=O)N3c3ccc(F)cc3)cc2)[C@H](O)[C@@H](O)[C@@H]1O", "note": "[Compound 1, Ezetimibe glucuronide]", "values": [{"measurement": "rate constant for association kon", "setting": "[1]; 25 nM 1, rat membranes, 25° C.", "value": "5,540 M^−1 s^−1"}, {"measurement": "kobs", "setting": "[1]; 25 nM of 1 and 3 mg/ml protein at 25° C.", "value": 0.004, "unit": "s⁻¹"}, {"measurement": "Ki", "setting": "[1]; [6]", "value": 530, "unit": "nM"}, {"measurement": "Kd", "setting": "[1]; 1.5 mg/ml protein, 50 nM 1, 1 hour, read-out: KD at equilibrium by competition of unlabeled compound against 1", "value": 600, "unit": "nM"}, {"measurement": "Ki", "setting": "[1]; [3]", "value": 390, "unit": "nM"}, {"measurement": "Bmax", "setting": "[1]; ^3H-EZE-glucuronide, rat BBMV", "value": 20.7, "unit": "pmol/mg protein"}, {"measurement": "Kd", "setting": "[1]; ^3H-ezetimibe glucuronide, rat membranes, no detergent, read-out: KD (equilibrium saturation binding, Scatchard)", "value": "542 nM and 540 nM"}, {"measurement": "Ki", "setting": "[1]; [7]", "value": 600, "unit": "nM"}, {"measurement": "IC50", "setting": "[1]; [4]", "value": 530, "unit": "nM"}, {"measurement": "rate constant for dissociation koff", "setting": "[1]; rat membranes, dissociation initiated with 100 μM unlabeled ezetimibe glucuronide", "value": 0.0024, "unit": "s⁻¹"}, {"measurement": "Kd", "setting": "[1]; rat membranes, read-out: Kd predicted from rate constants (Kd=koff/kon)", "value": 440, "unit": "nM"}, {"measurement": "IC50", "setting": "[1]; rat, read-out: in vitro binding affinity (IC50)", "value": 542, "unit": "nM"}, {"measurement": "residence time", "setting": "[1]; read-out: half-life of dissociation", "value": 4.7, "unit": "min"}, {"measurement": "kon", "setting": "[1]; read-out: rate constant for association kon, 25 nM 1, rat membranes, 25° C.", "value": 5500, "unit": "M⁻¹ s⁻¹"}, {"measurement": "kon", "setting": "[1]; read-out: rate constant for association kon, rat brush border membranes", "value": 5540, "unit": "M⁻¹ s⁻¹"}, {"measurement": "koff", "setting": "[1]; read-out: rate constant for dissociation koff", "value": 0.0024, "unit": "s⁻¹"}, {"measurement": "IC50", "setting": "[2]", "value": 41, "unit": "nM"}, {"measurement": "Kd", "setting": "[2]; KD at equilibrium by competition of unlabeled compound against 1, 0.5-1.25 mg/ml protein, 22-50 nM 1, more than 3 hours", "value": 38.6, "unit": "nM"}, {"measurement": "Kd", "setting": "[2]; Kd (equilibrium saturation binding, Scatchard), ^3H-ezetimibe glucuronide, rhesus membranes, no detergent", "value": 41, "unit": "nM"}, {"measurement": "Kd", "setting": "[2]; Kd predicted from rate constants (Kd=koff/kon), rhesus membranes", "value": 32, "unit": "nM"}, {"measurement": "Ki", "setting": "[2]; [5]", "value": 15, "unit": "nM"}, {"measurement": "residence time", "setting": "[2]; read-out: half-life for dissociation of the complex, rhesus/monkey complex", "value": "~90", "unit": "min"}, {"measurement": "kon", "setting": "[2]; read-out: rate constant for association kon", "value": 3900, "unit": "M⁻¹ s⁻¹"}, {"measurement": "koff", "setting": "[2]; read-out: rate constant for dissociation koff, rhesus membranes", "value": 0.000123, "unit": "s⁻¹"}, {"measurement": "concentration of binding site", "setting": "[2]; rhesus membranes", "value": 5.5, "unit": "pmol/mg membrane protein"}, {"measurement": "rate constant for dissociation koff", "setting": "[2]; rhesus membranes, listed as [^3H]ezetimibe glucuronide", "value": 0.00012, "unit": "s⁻¹"}, {"measurement": "Ki", "setting": "rat NPC1L1", "value": 210, "unit": "nM"}]}
{"smiles": "CS(=O)(=O)NCC#Cc1ccc(N2C(=O)[C@H](CC[C@H](O)c3ccc(F)cc3)[C@H]2c2ccc(O[C@@H]3O[C@H](C(=O)O)[C@@H](O)[C@H](O)[C@H]3O)cc2)cc1", "note": "[Compound 2, 4-[(2S,3R)-3-[(3S)-3 (4-fluorophenyl)-3-hydroxypropyl]-1-(4-{3-[(methylsulfonyl)amino]prop-1-yn-1-yl}phenyl)-4-oxoazetidin-2-yl]phenyl β-D-glucopyranosiduronic acid]", "values": [{"measurement": "Ki", "setting": "[1]; [6]", "value": 15, "unit": "nM"}, {"measurement": "Ki", "setting": "[1]; [7]", "value": 15, "unit": "nM"}, {"measurement": "potency relative to ezetimibe glucuronide", "setting": "[1]; rat enterocyte brush border membrane preparations", "value": 35, "unit": "fold"}, {"measurement": "potency relative to ezetimibe glucuronide", "setting": "[2]; rhesus membrane preparations", "value": "equipotent"}]}
{"smiles": "O=C(O)[C@H]1O[C@@H](Oc2ccc([C@@H]3[C@@H](CCCc4ccc(F)cc4)C(=O)N3c3ccc(F)cc3)cc2)[C@H](O)[C@@H](O)[C@@H]1O", "note": "[Compound 3]", "values": [{"measurement": "Ki", "setting": "[1]; [3]", "value": 1600, "unit": "nM"}, {"measurement": "Ki", "setting": "[1]; [7]", "value": 2300, "unit": "nM"}, {"measurement": "IC50", "setting": "[1]; [4]", "value": 2300, "unit": "nM"}, {"measurement": "Ki", "setting": "[2]", "value": 150, "unit": "nM"}, {"measurement": "Ki", "setting": "rat NPC1L1", "value": 820, "unit": "nM"}]}
{"smiles": "O=C(O)[C@H]1O[C@@H](Oc2ccc([C@@H]3[C@@H](CC[C@@H](O)c4ccc(F)cc4)C(=O)N3c3ccc(F)cc3)cc2)[C@H](O)[C@@H](O)[C@@H]1O", "note": "[Compound 5]", "values": [{"measurement": "Ki", "setting": "[1]; [3]", "value": 2800, "unit": "nM"}, {"measurement": "Ki", "setting": "[1]; [7]", "value": 3900, "unit": "nM"}, {"measurement": "IC50", "setting": "[1]; [4]", "value": 3900, "unit": "nM"}, {"measurement": "Ki", "setting": "[2]; [5]", "value": 120, "unit": "nM"}, {"measurement": "Ki", "setting": "rat NPC1L1", "value": 1700, "unit": "nM"}]}
{"smiles": "O=C(CC[C@H]1C(=O)N(c2ccc(F)cc2)[C@@H]1c1ccc(O[C@@H]2O[C@H](C(=O)O)[C@@H](O)[C@H](O)[C@H]2O)cc1)c1ccc(F)cc1", "note": "[Compound 6]", "values": [{"measurement": "Ki", "setting": "[1]; [3]", "value": 33000, "unit": "nM"}, {"measurement": "Ki", "setting": "[1]; [7]", "value": 70000, "unit": "nM"}, {"measurement": "IC50", "setting": "[1]; [4]", "value": 70000, "unit": "nM"}, {"measurement": "Ki", "setting": "[2]", "value": 3300, "unit": "nM"}, {"measurement": "Ki", "setting": "rat NPC1L1", "value": 23000, "unit": "nM"}]}
{"smiles": "O=C1[C@H](CC[C@H](O)c2ccc(F)cc2)[C@@H](c2ccc(O)cc2)N1c1ccc(F)cc1", "note": "[ezetimibe]", "values": [{"measurement": "Kd", "setting": "[1]; Table 11, rat, absence of detergents, read-out: KD", "value": 542, "unit": "nM"}, {"measurement": "Kd", "setting": "[2]; KD (nM), Table 11, monkey, absence of detergents", "value": 41, "unit": "nM"}]}
